Results on 1 compound are retold here after paper PMC9311059, “P‐Glycoprotein and Breast Cancer Resistance Protein Transporter Inhibition by Cyclosporine and Quinidine on the Pharmacokinetics of Oral Rimegepant in Healthy Subjects” (Clinical Pharmacology in Drug Development, 2022).

“And” between values parts separate entries of the source, which are not always exact repeats. Identical values can stand only once. Like-named read-outs stand apart in the source and are kept apart here.

The nature of series [1]: Part 2: pharmacokinetics of rimegepant 75 mg ODT alone or coadministered with quinidine 600 mg, 2-way crossover. Format: in vivo, human. The note with it: for AUC / Cmax: po, 75 mg; for Tmax: read-out: tmax, median (range). As to the method: This phase 1, open‐label, randomized, single‐dose, 2‐way crossover, 2‐part, drug‐drug interaction study was conducted at a single center (Syneos Health, Québec, Canada). Subjects were screened within 28 days preceding administration of study medication. In part 1, fasted subjects were randomly assigned to a single dose of rimegepant 75 mg ODT or a single dose of rimegepant 75 mg ODT coadministered with cyclosporine 200 mg (2 × 100‐mg capsules). […] Following the completion of part 1, an interim PK analysis and review of data were performed. […] In part 2, fasted subjects were randomly assigned to a single dose of rimegepant 75 mg ODT or a single dose of rimegepant 75 mg ODT coadministered with quinidine 600 mg (2 × 300‐mg tablets).
In part 1, subjects received 1 of the following treatments under fasting conditions: 1 oral dose of rimegepant 75 mg ODT (Catalent Pharma Solutions, Swindon, UK) or 1 oral dose of rimegepant 75 mg ODT coadministered with cyclosporine 200 mg (Novartis Pharmaceuticals Canada Inc., Dorval, Quebec, Canada). In part 2, subjects received 1 of the following treatments under fasting conditions: 1 oral dose of rimegepant 75 mg ODT alone or 1 oral dose of rimegepant 75 mg ODT coadministered with quinidine 600 mg (Sandoz Inc., West Princeton, New Jersey). In parts 1 and 2, the interval between treatments could not exceed 2 minutes.
For each treatment, subjects were confined from the morning of day −1 until after the 24‐hour postdose blood draw on day 2. Subjects returned for all subsequent blood draws. No food was allowed from at least 10 hours before dosing until at least 4 hours after dosing. Meals were standardized and similar in composition between periods. Except for water given with cyclosporine and quinidine, no fluids were allowed from 1 hour before dosing until 1 hour after dosing. Water was provided ad libitum at all other times. […] When appropriate, subjects were accompanied by a staff member while walking.
In each period, 20 blood samples for PK assessment were collected at the following time points: before dosing; 5, 10, 20, 30, 40, and 50 minutes after dosing; and 1, 1.5, 2, 2.5, 3, 4, 5, 6, 8, 12, 24 (day 2), 48 (day 3), and 72 (day 4) hours after dosing. […] Plasma samples were assayed for rimegepant using ultra‐performance liquid chromatography with tandem mass spectrometry detection (LC‐MS/MS). The quantifiable range was 10 to 5000 ng/mL. Plasma samples containing human ethylenediaminetetraacetic acid (EDTA) K2 plasma as an anticoagulant were processed using automated protein precipitation before LC‐MS/MS analysis. The internal standard was rimegepant‐^13C2d4. The validation was performed using an API 5000 LC/MS/MS system with Analyst software, version 1.6.3 (SCIEX, Framingham, Massachusetts). The pump flow was isocratic, with a flow rate set at 0.600 mL/min. The column was an Acquity UPLC BEH C18, 50×2.1 mm, 1.7 μm (Waters Corporation, Framingham, Massachusetts), which was maintained at a temperature of 60°C and contained Milli‐Q type water/acetonitrile with ammonium acetate and acetic acid. […] Incurred sample reanalysis was carried out on ≈10% of randomly selected samples.
The effects of cyclosporine (part 1) or quinidine (part 2) on the single‐dose PK of rimegepant were evaluated using general linear model procedures in SAS (SAS Institute, Cary, North Carolina). In these evaluations, analysis of variance (ANOVA) model was performed on untransformed tmax, terminal elimination rate constant, and t1/2el and on log‐transformed AUC0‐t, AUC0‐inf, and Cmax at the alpha level of .05. The model included treatment, sequence, and period as fixed effects, and subject nested within sequence as a random effect. Intra‐ and intersubject coefficient of variation were estimated.

Details of series [2]: method as in unpublished. The note with it: rimegepant 75 mg with itraconazole 200 mg once daily for 7 consecutive days, healthy adults; ref unpublished; cited from earlier work.
On the set-up of series [3]: method as in unpublished. The note with it: rimegepant 75 mg with fluconazole 400 mg once daily for 8 consecutive days; ref unpublished; cited from earlier work.
For another series, the system named is CYP2C9. On the set-up: method as in ref 7 = [7]; PMID 32058712; doi:10.1021/acs.jmedchem.9b01810; 7 Dubowchik GM , Conway CM , Xin AW . Blocking the CGRP pathway for acute and preventive treatment of migraine: the evolution of success . J Med Chem . 2020; 63 ( 13 ): 6600 ‐ 6623 . 32058712 10.1021. The note with it: implicated in vitro; CYP2C9 allelic variation without significant influence; cited from earlier work.

In another series the test system is P‐gp. On the set-up: method as in ref 7 = [7]; PMID 32058712; doi:10.1021/acs.jmedchem.9b01810; 7 Dubowchik GM , Conway CM , Xin AW . Blocking the CGRP pathway for acute and preventive treatment of migraine: the evolution of success . J Med Chem . 2020; 63 ( 13 ): 6600 ‐ 6623 . 32058712 10.1021. Conditions: in vitro; cited from earlier work.
The subject of series [4] is organic anion transporting polypeptide 1B1. On the set-up: method as in ref 7 = [7]; PMID 32058712; doi:10.1021/acs.jmedchem.9b01810; 7 Dubowchik GM , Conway CM , Xin AW . Blocking the CGRP pathway for acute and preventive treatment of migraine: the evolution of success . J Med Chem . 2020; 63 ( 13 ): 6600 ‐ 6623 . 32058712 10.1021. Conditions: in vitro; cited from earlier work.

Series [5] concerns organic anion transporting polypeptide 1B3. On the set-up: method as in ref 7 = [7]; PMID 32058712; doi:10.1021/acs.jmedchem.9b01810; 7 Dubowchik GM , Conway CM , Xin AW . Blocking the CGRP pathway for acute and preventive treatment of migraine: the evolution of success . J Med Chem . 2020; 63 ( 13 ): 6600 ‐ 6623 . 32058712 10.1021. The note with it: in vitro; cited from earlier work.

The mark [6] stands for this setting: by quinidine 600 mg, single dose rimegepant 75 mg ODT, vs rimegepant alone.
Where [7] appears, read: coadministration with quinidine 600 mg, rimegepant 75 mg.

Consider `N[C@@H]1c2cccnc2[C@H](OC(=O)N2CCC(n3c(=O)[nH]c4ncccc43)CC2)CC[C@H]1c1cccc(F)c1F` [Rimegepant], for which, in series [1] (setting [6]), the “increase in rimegepant AUC0‐inf” value was 54.8% and 55%. Further, the “increase in rimegepant Cmax” value is 66.9% and 67% in series [1] (setting [6]); 40% in series [2]. Further, the “rimegepant AUC0‐inf geometric mean ratio (90% CI) versus rimegepant alone” value in series [1] (setting [7]) is 1.55 (1.40‐1.72). Also, the “rimegepant Cmax geometric mean ratio (90% CI) versus rimegepant alone” value in series [1] (setting [7]) is 1.67 (1.46‐1.91). In addition, the AUC was determined as 4410 ng·h/mL in series [1] (human, plasma, part 2, rimegepant 75 mg ODT alone, single oral dose, fasted, plasma, N = 12, read-out: AUC0‐inf, geometric least squares mean); 4400 ng·h/mL in series [1] (human, plasma, part 2, rimegepant 75 mg ODT alone, single oral dose, fasted, plasma, N = 12, read-out: AUC0‐t, geometric least squares mean); 4540 ng·h/mL in series [1] (human, plasma, part 2, rimegepant ODT 75 mg alone, single oral dose, N 12, read-out: AUC0‐inf, arithmetic mean (percent coefficient of variation)); 4520 ng·h/mL in series [1] (human, plasma, part 2, rimegepant ODT 75 mg alone, single oral dose, N 12, read-out: AUC0‐t, arithmetic mean (percent coefficient of variation)). In addition, the maximum concentration (Cmax) in series [1] (human, plasma, part 2, rimegepant 75 mg ODT alone, single oral dose, fasted, plasma, N = 12, read-out: Cmax, geometric least squares mean) is 797 ng/mL; in series [1] (human, plasma, part 2, rimegepant ODT 75 mg alone, single oral dose, N 12, read-out: Cmax, arithmetic mean (percent coefficient of variation)), 829 ng/mL. In addition, the Tmax came to 1.5 h in series [1] (human, plasma, part 2, rimegepant ODT 75 mg alone, single oral dose, N 12) and 2.8 h in series [1] (human, plasma, part 2, rimegepant ODT 75 mg coadministered with quinidine 600 mg, single oral dose, N 12). In addition, in series [1] (human, plasma, part 2, rimegepant ODT 75 mg alone, single oral dose, N 12, read-out: t½el, arithmetic mean (percent coefficient of variation) (converted)), the half-life is 8.56 h. The “CL/F, arithmetic mean (percent coefficient of variation)” value in series [1] (part 2, rimegepant ODT 75 mg alone, single oral dose, N 12) is 17.39 (24.68) L/h. For the same compound, in series [1] (part 2, rimegepant with quinidine vs rimegepant alone), the “difference in geometric mean t1/2el between treatments” value is reported as ≤ 20%. The entries for the “increase in rimegepant AUC” value in series [2] and in series [3] were 400% and 80%, respectively. Besides, the “change in rimegepant Cmax” value in series [3] is recorded as “no change”. The “role of CYP2C9 in metabolism” value in the series with CYP2C9 is listed as “not to be a significant mediator of metabolism in vivo”. In the series with P‐gp, the “substrate of P‐gp transporter” value is “substrate”. Also, in series [4], the “substrate of organic anion transporting polypeptide 1B1” value was “not a substrate”. Also, in series [5], the “substrate of organic anion transporting polypeptide 1B3” value is “not a substrate”.

The term Cmax denotes the peak of the concentration-time curve. Usually Tmax stands for the time from dosing to the highest level.
